Measured values as given in patent US20080214537A1, “BRIDGED PHENANTHRIDINES” (CARA THERAPEUTICS, INC., priority 2007, published 2008).

Columns and labels:
[1] = target: human CB2 receptor (hCB2) (Homo sapiens, UniProt P34972); experiment: cAMP assay (LANCE TR-FRET) in CHO-K1 cells expressing hCB2; type: cell-based; conditions: for Emax: CHO-K1, intrinsic activity: percent maximal activation compared to full activation by CP55,940 (1 μM = 100%), read-out: hCB2 % Max Range; for EC50: CHO-K1 cells stably expressing hCB2, intracellular cAMP, NKH-477 prestimulated, average of at least three replicates
Description: (§1) The ability of compounds to act as agonists or inverse agonists at human CB2 and CB1 receptors (hCB2, hCB1, respectively) was determined by measuring changes in intracellular cAMP levels. Chinese Hamster Ovary (CHO-K1) cell lines stably expressing hCB2 (Genebank: X74328) or hCB1 (Genebank: X54937) were purchased from Euroscreen (Gosselies, Belgium).
(§2) Cell lines were grown in suspension in EX-CELL 302 CHO Serum-free medium (Sigma, catalog #14324C) supplemented with 1% Fetal Bovine Serum, glutamine and with or without non-essential amino-acids under 0.4 mg/mL G418 selection.
(§3) Receptor mediated responses were determined by measuring changes in intracellular cAMP using LANCE cAMP detection kit (catalog #AD0264, PerkinElmer, Wellesley, Mass.) based on time-resolved fluorescence resonance energy transfer (TR-FRET). Changes in cAMP were determined in cells pre-incubated with IBMX (isobutyl methylxanthine) and prestimulated with NKH-477 (a water soluble forskolin derivative, catalog #1603, Tocris, Ellisville, Mo.) to increase basal cAMP levels as detailed below.
(§4) On the day of the experiment, cells were spun at low speed for 5 min at room temperature. The supernatant was removed and cells were resuspended in stimulation buffer (Hanks Buffered Salt Solution/5 mM HEPES, containing 0.5 mM IBMX (catalog #17018, Sigma) and 0.02% BSA (PerkinElmer, catalog #CR84-100)). Cell clumps were removed by filtering through cell strainer 40 μm (BD Falcon, Discovery Labware, Bedford, Mass.) and diluted to 2×10^5 cells/mL. Antibody supplied with the LANCE cAMP immunoassay kit was then added according to the manufacturer's instructions. An aliquot of cells was taken for un-induced controls. To the remaining cells was added NKH-477 (a water soluble forskolin derivative, Tocris catalog #1603) to a final concentration of 2-8 μM. Cells were then incubated for either 25 or 30 min at room temperature prior to adding to Proxiplates containing test compounds (final DMSO concentration was less than 0.5%) with a Multidrop bulk dispenser, followed by a sixty minute incubation at room temperature. The response was stopped by addition of the detection mix supplied with the LANCE kit.
(§5) The reagents were allowed to equilibrate for three hours prior to reading on an Envision multi-mode detector (PerkinElmer). TR-FRET was measured using a 330-380 nm excitation filter, 615 and 665 nm emission filters, dichroic mirror 380 nm and Z=1 mm.
(§6) Cyclic AMP concentrations in each well were back-calculated from a cAMP standard curve run concurrently during each assay. Each plate contained 16 wells of forskolin stimulated cells and 16 wells of forskolin plus CP55,940-treated. CP55,940-treated cells were treated with CP55,940 (Tocris catalog #0949) at 1 μM and the maximal response was used as the full range (100%) standard. WIN55,212 (Tocris catalog #1038) was used as an internal standard. Concentrations of cAMP were expressed as a percent of the difference of these two groups of wells. Concentration-response data including EC50 (the concentration of compound producing 50% of the maximal response) and intrinsic activity (the percent maximal activation compared to full activation by CP55,940) were determined using a four-parameter non-linear regression algorithm (Xlfit equation 251, IDBS). Assays were performed with at least three replicates per compound and averaged results for the several compounds of the invention are shown in Table I.

Male ICR mice = experiment: Acetic acid-induced writhing assay in mice; type: in vivo; conditions: 10 mg/kg subcutaneous, 30 min before 0.6% acetic acid i.p.; writhes counted over 15 min
From the text: 12: 525-562; Ramabadran and Bansinath (1986) Pharm. Res. 3: 263-270]. Intraperitoneal administration of dilute acetic acid solution causes a writhing behavior in mice. A writhe is defined as a contraction of the abdominal muscles accompanied by an extension of the forelimbs and elongation of the body. The number of writhes observed in the presence and absence of test compounds is counted to determine the analgesic activity of the compounds.
(§7) Male ICR mice, 20-40 grams in weight, served as experimental subjects. To determine the activity and potency of test compounds, mice were weighed and then injected with different doses of the compound solution or vehicle subcutaneously in the back of the neck and then returned to their home cages. Thirty minutes later, body temperatures were obtained using a digital rectal probe and then mice were immediately injected with 10 ml/kg of a 0.6% (v/v) acetic acid solution into the right lower quadrant of the abdomen. Mice were then placed in individual observation chambers (usually a 4000 ml beaker) with a fine layer of bedding at the bottom and the recording of the number of writhes begun immediately. The number of writhes was counted over a 15-min period starting from the time of the acetic acid injection. Raw data were analyzed using a one-way ANOVA followed by Dunnett's post-tests. For dose-response analysis, raw data were converted to % maximum possible effect (% MPE) using the formula:
% MPE=((Wc−Wv)/(0−Wv))*100
where Wc is the number of writhes in compound-treated mice and Wv is the mean number of writhes in vehicle-treated mice. The dose which elicited 50% attenuation of hypersensitivity (ED50) was determined using linear regression analysis. (Tallarida & Murray, 1987).

[2] = Body temperature (rectal probe) in writhing assay mice; type: in vivo; conditions: 10 mg/kg subcutaneous; thirty minutes after dosing
Description: as §7, with “formula: […]” for “formula:”

[3] = target: human CB1 receptor (hCB1) (Homo sapiens, UniProt P21554); experiment: cAMP assay (LANCE TR-FRET) in CHO-K1 cells expressing hCB1; type: cell-based; conditions: activity on hCB1 represents inverse agonism; for Emax: CHO-K1, percent of range defined by CP55,940 (1 μM = 100%), read-out: hCB1 % Max Range; for EC50: CHO-K1 cells stably expressing hCB1, intracellular cAMP, NKH-477 prestimulated
Description: as §1, §2, §3, §4, §5
as §6, with “IDBS).” for “IDBS). Assays were performed with at least three replicates per compound and averaged results for the several compounds of the invention are shown in Table I.”

Sequence of human CB2 receptor (hCB2) (P34972 whole entry): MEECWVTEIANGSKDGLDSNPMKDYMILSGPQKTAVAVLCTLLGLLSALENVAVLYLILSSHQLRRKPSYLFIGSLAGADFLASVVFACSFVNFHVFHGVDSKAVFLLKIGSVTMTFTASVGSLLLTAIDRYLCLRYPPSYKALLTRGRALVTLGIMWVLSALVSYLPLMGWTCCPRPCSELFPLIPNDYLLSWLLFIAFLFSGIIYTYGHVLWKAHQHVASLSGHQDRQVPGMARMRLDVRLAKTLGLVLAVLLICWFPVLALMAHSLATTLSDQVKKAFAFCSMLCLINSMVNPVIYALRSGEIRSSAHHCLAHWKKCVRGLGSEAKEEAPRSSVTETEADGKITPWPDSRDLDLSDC
Sequence of human CB1 receptor (hCB1) (P21554 whole entry): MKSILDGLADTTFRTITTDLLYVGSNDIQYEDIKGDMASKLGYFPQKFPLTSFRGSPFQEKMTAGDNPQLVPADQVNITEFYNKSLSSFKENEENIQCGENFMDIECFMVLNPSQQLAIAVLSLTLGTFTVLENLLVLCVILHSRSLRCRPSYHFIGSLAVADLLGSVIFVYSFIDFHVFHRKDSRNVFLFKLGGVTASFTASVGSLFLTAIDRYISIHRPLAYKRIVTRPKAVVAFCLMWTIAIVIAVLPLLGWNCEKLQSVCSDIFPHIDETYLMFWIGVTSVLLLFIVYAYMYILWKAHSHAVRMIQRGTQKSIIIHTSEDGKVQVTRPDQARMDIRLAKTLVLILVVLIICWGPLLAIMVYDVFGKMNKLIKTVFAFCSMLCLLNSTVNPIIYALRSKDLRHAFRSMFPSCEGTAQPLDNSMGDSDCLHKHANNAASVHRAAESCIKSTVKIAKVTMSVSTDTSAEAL

Row | Compound | Emax [1] [%] | EC50 [1] [nM] | % MPE (Male ICR mice) [%] | Δ BODY TEMP. (° C.): observed reduction in body temperature [2] [°C] | Emax [3] [%] | EC50 [3] [nM]
1 | O=S(=O)(c1ccc2c(c1)C1C3CCC(C3)C1C(c1ccccc1)N2)N1CCCCC1 (centres unmarked) [(3b), Bridged 6-phenyl-2-(piperidin-1-ylsulfonyl)-5,6,6a,7,8,9,10,10a-octahydrophenanthridine] | 101 | 0.38 | 12 | 0.4 | < 40 | > 10000
2 | O=S(=O)(c1ccc2c(c1)C1C3CCC(C3)C1C(c1ccccc1)N2)N1CCOCC1 (centres unmarked) [(34), Bridged 4-(6-phenyl-5,6,6a,7,8,9,10,10a-octahydrophenanthridin-2-ylsulfonyl)morpholine] | 102 | 0.56 | 23 | 0.1 | < 40 | > 10000
3 | COCCC(=O)Nc1ccc2c(c1)C1C3CCC(C3)C1C(c1ccccc1)N2 (centres unmarked) [(12), Bridged 3-methoxy-N-(6-phenyl-5,6,6a,7,8,9,10,10a-octahydrophenanthridin-2-yl)propanamide] | 82 | 12.4 |  |  | < 40 | > 10000
4 | Cn1nccc1C1Nc2ccc(S(=O)(=O)N3CCCC3)cc2C2C3CCC(C3)C12 (centres unmarked) [(42), Bridged 6-(1-methyl-1H-pyrazol-5-yl)-2-(pyrrolidin-1-ylsulfonyl)-5,6,6a,7,8,9,10,10a-octahydrophenanthridine] | 100 | 0.91 |  |  | < 40 | > 10000
5 | CC(=O)NS(=O)(=O)c1ccc2c(c1)C1C3CCC(C3)C1C(c1ccccc1)N2 (centres unmarked) [(46), Bridged N-(6-phenyl-5,6,6a,7,8,9,10,10a-octahydrophenanthridin-2-ylsulfonyl)acetamide] | 96.9 | 36.7 | 41 | 0.2 | < 40 | > 10000
6 | NS(=O)(=O)c1ccc2c(c1)C1C3CCC(C3)C1C(c1ccccc1)N2 (centres unmarked) [(39), Bridged 6-phenyl-5,6,6a,7,8,9, 10,10a-octahydrophenanthridine-2-sulfonamide] | 83.3 | 17.7 |  |  | 172 | 3040
7 | CC(=O)Nc1ccc(C2Nc3ccc(S(=O)(=O)N(C)C)cc3C3C4CCC(C4)C23)cc1 (centres unmarked) [(32), Bridged N-(4-(2-(N,N-dimethylsulfamoyl)-5,6,6a,7,8,9,10,10a-octahydrophenanthridin-6-yl)phenyl)acetamide] | 81.3 | 225 |  |  | < 40 | > 10000
8 | CN(C)S(=O)(=O)c1ccc2c(c1)C1C3CCC(C3)C1C(c1ccccc1)N2 (centres unmarked) [(11), Bridged N,N-dimethyl-6-phenyl-5,6,6a,7,8,9,10,10a-octahydrophenanthridine-2-sulfonamide] | 99 | 0.98 |  |  | < 40 | > 10000
9 | O=C(NCC1CC1)c1ccc2c(c1)C1C3CCC(C3)C1C(c1ccccc1)N2 (centres unmarked) [Compound (2d), Methylene bridged N-(cyclopropylmethyl)-6-phenyl-5,6,6a,7,8,9,10,10a-octahydrophenanthridine-2-carboxamide] | 84 | 19 |  |  | < 40 | > 10000
10 | Cc1ccc(C2Nc3ccc(S(=O)(=O)N4CCCCC4)cc3C3C4CCC(C4)C23)cc1 (centres unmarked) [(10), Bridged 2-(piperidin-1-ylsulfonyl)-6-p-tolyl-5,6,6a,7,8,9,10,10a-octahydrophenanthridine] | 98 | 21 |  |  | < 40 | > 10000
11 | CCCCC(=O)Nc1ccc2c(c1)C1C3CCC(C3)C1C(c1ccccc1)N2 (centres unmarked) [Compound (4d), Bridged N-(6-phenyl-5,6,6a,7,8,9,10,10a-octahydrophenanthridin-2-yl)pentanamide] | 92 | 6.9 |  |  | < 40 | > 10000
